Drawing on patent US5482948A, “Pyridyl derivatives and pharmaceutical compositions comprising these compounds” (Dr. Karl Thomae GmbH, priority 1991, dated 1996), this text covers IC50 and EC50 for 20 molecules.

Assay [1] has as its target T1, thromboxane synthetase (Homo sapiens, UniProt P24557).
T1 construct: endogenous in cells; host or cells: human platelets (platelet-rich plasma passed through Sepharose 2B)
T1 sequence (P24557 1-533): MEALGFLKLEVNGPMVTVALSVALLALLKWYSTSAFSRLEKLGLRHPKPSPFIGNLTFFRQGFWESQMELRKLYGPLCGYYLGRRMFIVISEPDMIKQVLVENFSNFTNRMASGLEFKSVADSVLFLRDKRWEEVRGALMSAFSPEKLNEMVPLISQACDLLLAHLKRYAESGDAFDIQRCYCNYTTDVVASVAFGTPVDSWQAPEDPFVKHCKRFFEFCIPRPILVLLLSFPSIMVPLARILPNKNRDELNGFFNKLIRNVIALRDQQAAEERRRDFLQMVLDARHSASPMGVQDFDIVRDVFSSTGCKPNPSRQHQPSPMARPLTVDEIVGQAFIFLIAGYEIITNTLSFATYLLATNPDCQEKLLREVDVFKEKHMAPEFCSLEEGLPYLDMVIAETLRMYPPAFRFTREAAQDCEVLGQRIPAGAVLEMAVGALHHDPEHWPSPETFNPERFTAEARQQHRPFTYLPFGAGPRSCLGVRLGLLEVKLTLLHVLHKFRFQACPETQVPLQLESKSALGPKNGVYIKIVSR
In words: Inhibitory effect on thromboxane synthetase (TXB2 formation in human platelet suspension). Type of assay: cell-based. The conditions noted are these: 10 minutes at ambient temperature, then 14C-labelled arachidonic acid 10 minutes, read-out: Inhibition of thromboxane synthetase IC50. How it is done:
Determining the Inhibitory Effect on Thromboxane Synthetase
Venous human blood is anti-coagulated with 13 mM Na3 citrate and centrifuged for 10 minutes at 170×g. The supernatant platelet-rich plasma is passed through a Sepharose 2B column in order to remove the plasma proteins. Aliquots of the platelet suspension obtained are incubated with the test substance or with a solvent as control for 10 minutes at ambient temperature and after the addition of ^14 C-labelled arachidonic acid incubation is continued for a further 10 minutes. After this has been stopped with 50 μl of citric acid, extraction is carried out 3 times with 500 μl of ethyl acetate and the combined extracts are distilled off with nitrogen. The residue is taken up in ethyl acetate, placed on TLC film and separated with chloro-form:methanol:glacial acetic acid:water (90:8:1:0.8, v/v/v/v). The dried TLC films are placed on X-ray film for 3 days, the autoradiograms were developed and the active zones were marked on the film using the autoradiograms. After cutting out, the activity is measured in a scintillation counter and the inhibition of the formation of TXB2 is calculated. The IC50 is determined by linear interpolation.

Assay [2] deals with T2, Thromboxane (Homo sapiens, UniProt P21731).
T2 construct: endogenous in cells; host or cells: human platelets (platelet-rich plasma passed through Sepharose 2B)
T2 sequence (P21731 1-343): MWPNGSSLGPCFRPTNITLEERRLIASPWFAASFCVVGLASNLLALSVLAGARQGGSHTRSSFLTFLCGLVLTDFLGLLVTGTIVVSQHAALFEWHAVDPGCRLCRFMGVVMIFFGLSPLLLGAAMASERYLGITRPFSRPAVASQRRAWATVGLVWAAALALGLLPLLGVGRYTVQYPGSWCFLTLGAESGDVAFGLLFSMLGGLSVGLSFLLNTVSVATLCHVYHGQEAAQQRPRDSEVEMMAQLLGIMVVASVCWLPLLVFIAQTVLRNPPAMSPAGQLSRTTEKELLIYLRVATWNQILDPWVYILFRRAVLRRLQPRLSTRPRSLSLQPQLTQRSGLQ
In words: Thromboxane-antagonistic activity (displacement of 3H-labelled ligand on human platelets). Type of assay: binding. The conditions noted are these: human platelet suspension, 60 minutes at ambient temperature. How it is done: Thromboxane-antagonistic Activity
Venous human blood is anti-coagulated with 13 mM Na3 citrate and centrifuged for 10 minutes at 170×g. The supernatant platelet-rich plasma is passed through a Sepharose 2B column in order to remove the plasma proteins. Aliquots of the platelet suspension obtained are incubated with the test substance, the ligand (^3 H-labelled) and a marker (^14 C-labelled) for 60 minutes at ambient temperature and then centrifuged for 20 seconds at 10,000×g. The supernatant is removed and the pellet is dissolved in NaOH. The ^3 H activity in the supernatant corresponds to the free ligand, ^14 C gives the concentration of the marker. ^3 H in the pellet corresponds to the bound ligand whilst ^14 C is used to correct for the ligand in the extracellular space. After the process has been repeated, the displacement curve is determined from the binding values for different concentrations of the test substance and the IC50 is determined.

The test system of assay [3] is thrombocyte aggregation. As to the kind of experiment: Antithrombotic activity: collagen-induced aggregation in platelet-rich plasma (Born and Cross). Type of assay: cell-based. The conditions noted are these: Homo sapiens, 10 min; platelet-rich plasma from healthy volunteers; incubated 10 minutes at 37° C.; 50% change in optical density; read-out: Inhibition of collagen-induced aggregation EC50. How it is done:
The thrombocyte aggregation is measured using the method of Born and Cross (J. Physiol. 170, 397 (1964)) in platelet-rich plasma taken from healthy volunteers. To inhibit coagulation, the blood is mixed with 3.14% strength sodium citrate in a ratio by volume of 1:10.
Collagen-induced Aggregation
The pattern of decrease in the optical density of the platelet suspension is photometrically measured and recorded after the addition of the aggregation-triggering substance. The rate of aggregation is concluded from the angle of inclination of the density curve. The point on the curve where there is greatest light transmittance is used to calculate the "optical density".
The quantity of collagen used is as little as possible but sufficient to produce an irreversible reaction curve. Standard commercial collagen produced by Hormonchemie of Munich is used. Before the addition of the collagen the plasma is incubated for 10 minutes with the substance at 37° C.
From the measurements obtained an EC50 is determined by plotting a graph, and indicates a 50% change in the "optical density" in terms of the inhibition of aggregation.

Molecules are shown by their SMILES. pEC50, pIC50: −log10 of the molar value.

Usually pIC50 stands for the IC50 on a negative log10 scale, so that one unit is a factor of ten. The term pEC50 denotes −log10 of the EC50, conventionally taken in molar units. `CC(C)(C)NC(=NS(=O)(=O)c1ccccc1)Nc1cccc(/C(=C\CCCC(=O)O)c2cccnc2)c1` [Example V, 5E-6-(3-(3-tert.butyl-2-phenylsulphonyl-guanidino)phenyl)-6-(3-pyridyl)hex-5-enoic acid]: the negative-log IC50 (pIC50) in assay [1] is 8.40; in assay [2] it was 7.26. Besides, in assay [3], the pEC50 is 5.52.
Consider `N#CC(C#N)=C(Nc1cccc(/C(=C\CCCC(=O)O)c2cccnc2)c1)NC1CCCC1` [M, 5E-6-(3-(2,2-dicyano-1-cyclopentylaminoethyleneamino)-phenyl)-6-(3-pyridyl)hex-5-enoic acid], for which the pIC50 in assay [1] is 7.48; in assay [2], 9.00. Moreover, the pEC50 in assay [3] is 7.30.
Consider `N#CN=C(Nc1cccc(/C(=C\CCCC(=O)O)c2cccnc2)c1)NC1CC1` [A, 5E-6-(3-(2-cyano-3-cyclopropyl-guanidino)phenyl)-6-(3-pyridyl)hex-5-enoicacid], for which the pIC50 in assay [1] was 6.42; in assay [2], 7.77.
Regarding `CCCCCNC(=NC#N)Nc1cccc(/C(=C\CCCC(=O)O)c2cccnc2)c1` [H, 5E-6-(3-(2-cyano-3-pentyl-guanidino)phenyl)-6-(3-pyridyl)hex-5-enoic acid], the negative-log IC50 (pIC50) was 8.30 in assay [1] and 7.60 in assay [2]. Moreover, the pEC50 in assay [3] is 6.19.
For `CC(C)CNC(Nc1cccc(/C(=C\CCCC(=O)O)c2cccnc2)c1)=C(C#N)C(N)=O` [X, 5E-6-(3-(2-carbamoyl-2-cyano-1-(2-methylpropylamino)-ethyleneamino)phenyl)-6-(3-pyridyl)hex-5-enoic acid] the same measures were 8.30, 6.42 and 4.51.
For `N#CN=C(Nc1ccc(/C(=C\CCCC(=O)O)c2cccnc2)cc1)NC1CCCCC1` [R, 5E-6-(4-(2-cyano-3-cyclohexyl-guanidino)phenyl)-6-(3-pyridyl)hex-5-enoic acid] the same measures were 6.74, 5.89 and 4.51.
`CC(C)(C)CNC(Nc1cccc(/C(=C\CCCC(=O)O)c2cccnc2)c1)=C(C#N)C#N` [N, 5E-6-(3-(2,2-dicyano-1-neopentylaminoethyleneamino)phenyl)-6-(3-pyridyl)hex-5-enoic acid]: the pIC50 was 7.36 in assay [1] and 8.52 in assay [2]. Also, the pEC50 in assay [3] is 6.21.
For `CC(C)CNC(Nc1cccc(/C(=C\CCCC(=O)O)c2cccnc2)c1)=C(C#N)C#N` [J, 5E-6-(3-(2,2-dicyano-1-(2-methylpropylamino)ethyleneamino)phenyl)-6-(3-pyridyl)hex-5-enoic acid] the same measures were 7.52, 8.70 and 6.92.
For `N#CC(C#N)=C(Nc1cccc(/C(=C\CCCC(=O)O)c2cccnc2)c1)NC1CC1` [O, 5E-6-(3-(2,2-dicyano-1-cyclopropylaminoethyleneamino)phenyl)-6-(3-pyridyl)hex-5-enoic acid] the same measures were 7.19, 7.21 and 7.40.
As to `CC(C)(C)NC(=NC#N)Nc1cccc(C(CCCCC(=O)O)c2cccnc2)c1` (stereo not drawn) [S, 6-(3-(2-cyano-3-tert.butyl-guanidino)phenyl)-6-(3-pyridyl)hexanoic acid], the pIC50 was 7.43 in assay [1] and 6.92 in assay [2]. Besides, the pEC50 in assay [3] was 5.96.
As for `N#CN=C(Nc1cccc(/C(=C\CCCn2cnnn2)c2cccnc2)c1)NC1CCCC1` [Y, 4E-1-(5-(3-(2-cyano-3-cyclopentyl-guanidino)phenyl)-5-(3-pyridyl)-pent-4-enyl)tetrazole], the values for the pIC50 in assay [1] and in assay [2] were 6.60 and 7.68, respectively. For the same molecule, the negative-log EC50 (pEC50) in assay [3] is 5.92.
As for `CCCNC(Nc1cccc(/C(=C\CCCC(=O)O)c2cccnc2)c1)=C(C#N)C#N` [P, 5E-6-(3-(2,2-dicyano-1-propylamino-ethyleneamino)phenyl)-6-(3-pyridyl)hex-5-enoic acid], the figures for the negative logarithm of the IC50 (pIC50) in assay [1] and in assay [2] were 7.40 and 7.43, respectively. Also, the pEC50 in assay [3] was 7.30.
The like results for `N#CN=C(Nc1cccc(/C(=C\CCCC(=O)O)c2cccnc2)c1)N[C@@H]1C[C@H]2CC[C@@H]1C2` (relative stereo) [E, 5E-6-(3-(2-cyano-3-(exo-norborn-2-yl)guanidino)phenyl)-6-(3-pyridyl)hex-5-enoic acid] were, in that order, 8.40, 7.77 and 6.12.
For `CC(C)(C)CNC(=NC#N)Nc1cccc(/C(=C\CCCC(=O)O)c2cccnc2)c1` [G, 5E-6-(3-(2-cyano-3-neopentyl-guanidino)phenyl)-6-(3-pyridyl)hex-5-enoic acid], the pIC50 is 7.85 in assay [1] and 7.66 in assay [2]. Further, the pEC50 in assay [3] was 6.59.
With `CC(C)NC(Nc1cccc(/C(=C\CCCC(=O)O)c2cccnc2)c1)=C(C#N)C#N` [K, 5E-6-(3-(2,2-dicyano-1-isopropylaminoethyleneamino)phenyl)-6-(3-pyridyl)hex-5-enoic acid], the pIC50 was 7.35 in assay [1] and 8.70 in assay [2]. For the same molecule, the pEC50 in assay [3] was 7.70.
The like results for `CC(C)(C)NC(Nc1cccc(/C(=C\CCCC(=O)O)c2cccnc2)c1)=C(C#N)C#N` [Q, 5E-6-(3-(2,2-dicyano-1-tert.butylaminoethyleneamino)phenyl)-6-(3-pyridyl)hex-5-enoic acid] were, in that order, 7.30, 7.30 and 6.92.
For `CC(C)NC(=NC#N)Nc1cccc(/C(=C\CCCC(=O)O)c2cccnc2)c1` [D, 5E-6-(3-(2-cyano-3-isopropyl-guanidino)phenyl)-6-(3-pyridyl)hex-5-enoic acid], the results for the negative-log IC50 (pIC50) in assay [1] and in assay [2] were 7.62 and 7.74, respectively.
Consider `CC(C)(C)NC(=NC#N)NCCc1ccc(C(=CCCCC(=O)O)c2cccnc2)cc1` [U, E/Z-6-(4-(2-(2-cyano-3-tert.butyl-guanidino)ethyl)phenyl)-6-(3-pyridyl)hex-5-enoic acid], for which the pIC50 in assay [1] is 8.15; in assay [2], 7.30. Besides, the pEC50 in assay [3] was 5.92.
As for `CC(C)(C)NC(=NC#N)Nc1cccc(/C(=C\CCCC(=O)O)c2cccnc2)c1` [B, 5E-6-(3-(2-cyano-3-tert.butyl-guanidino)phenyl)-6-(3-pyridyl)hex-5-enoic acid], the pIC50 in assay [2] is 7.96. Moreover, the pEC50 in assay [3] is 6.30.
`N#CN=C(Nc1cccc(/C(=C\CCCC(=O)O)c2cccnc2)c1)NC1CCCC1` [C, 5E-6-(3-(2-cyano-3-cyclopentyl-guanidino)phenyl)-6-(3-pyridyl)hex-5-enoicacid]: the pIC50 in assay [1] is 8.52; in assay [2], 7.52. For the same molecule, the pEC50 in assay [3] is 6.28.
